# Experimental data taken from patent publication US10980900B2, “Imaging of meningiomas using phenylbenzothiazole, stilbene, or biphenylalkyne derivatives” (MAYO FOUNDATION FOR MEDICAL EDUCATION AND RESEARCH, priority 2010, dated 2021).
# Entries after “also recorded” stand apart in the source; their conditions may differ.
# How the values were obtained:
# [1] = system: meningioma tissue sections; assay: Fluorescent PiB / 6-CN-PiB staining of meningioma tissue sections; type: binding, human
# Source text: (§1) The Department of Pathology, Mayo Clinic Rochester Tumor Tissue Registry, contains tumor samples procured by autopsy and surgery. Meningiomas, brain metastases and other tumors were identified by searching CoPath, a Mayo Clinic electronic pathology database of tumors collected since 1982. Tumor type was confirmed by viewing H&E stained slides under a light microscope.
# Fresh cut 5 μm thick sections were used. Each staining run included normal brain and Alzheimer diseased brain as controls. Fluorescent tissue staining and microscopy was performed similar to methods previously described at Ikonomovic M D, Klunk W E, Abrahamson E E, et al., “Post-mortem correlates of in vivo PiB-PET amyloid imaging in a typical case of Alzheimer's disease”, Brain: A Journal Of Neurology 2008; 131:1630-45. Meningioma and other brain tumor sections were stained with 100 nM CN-PiB, 100 nM of unlabeled PiB or with saline alone as a negative control. The staining protocol was as follows: deparaffinization and rehydration, 0.25% KMnO4 incubation, water wash, 1% K2S2O5/1% Oxalic Acid incubation, water wash, PBS wash, 6-CN-PiB/PiB/saline incubation, PBS wash, NaCl, K2HPO4, and KH2PO4 incubation, water wash, mount coverslip, and storage at 4° C. in the dark until imaged. Slides were imaged within five days of staining.
# Tissue stain images were obtained on a Zeiss 510 confocal microscope with excitation at 405 nm, a 420-480 bandpass filter, and the laser set at 15% power. Images were obtained with a C-Apochromat 40×/1.2 W lens.
# [2] = system: other intracranial tumors (schwannoma, metastasis) tissue sections; assay: Fluorescent 6-CN-PiB staining of other intracranial tumor tissue sections; type: binding, human; conditions: some other tumors, different staining pattern
# Source text: as §1
# Fresh cut 5 μm thick sections were used. Each staining run included normal brain and Alzheimer diseased brain as controls. Fluorescent tissue staining and microscopy was performed similar to methods previously described at Ikonomovic M D, Klunk W E, Abrahamson E E, et al., “Post-mortem correlates of in vivo PiB-PET amyloid imaging in a typical case of Alzheimer's disease”, Brain: A Journal Of Neurology 2008; 131:1630-45. Meningioma and other brain tumor sections were stained with 100 nM CN-PiB, 100 nM of unlabeled PiB or with saline alone as a negative control. The staining protocol was as follows: deparaffinization and rehydration, 0.25% KMnO4 incubation, water wash, 1% K2S2O5/1% Oxalic Acid incubation, water wash, PBS wash, 6-CN-PiB/PiB/saline incubation, PBS wash, NaCl, K2HPO4, and KH2PO4 incubation, water wash, mount coverslip, and storage at 4° C. in the dark until imaged. Slides were imaged within five days of staining. […]
# [3] = system: non-meningioma tumors and lesions; assay: PiB PET/CT imaging of non-meningioma tumors and lesions in patients; type: in vivo, human
# Source text: (§2) An Alzheimer's imaging database of two hundred forty-one patients was reviewed. […] All patients had been imaged by at least one MRI, as well as by FDG-PET/CT and PET/CT using the compound of formula (V). MRI reports of all patients were reviewed for possible meningiomas and other tumors. […] The diagnostic confidence of the radiologists interpreting the studies varied slightly, depending on factors such as tumor location and previous imaging. […] Tumors smaller than 7 millimeters are generally considered too small to be evaluated by PET or PET/CT. This is an excepted limitation of PET or PET/CT as a modality. […] None of the meningiomas in the series would be classified as atypical or aggressive based on MRI or CT imaging. One presumed extracranial schwannoma was seen, showing mild uptake on FDG-PET/CT, but no uptake on PET/CT using the compound of formula (V).
# (§3) The radiologic interpretations of MRI, CT and FDG PET/CT scans from a population of 834 people who participated in the population-based Mayo Clinic Study of Aging (MCSA) from March 2006 through September 2011 were reviewed for the presence of tumors or other brain lesions. (See, Kantarci K, Lowe V, Przybelski S A, et al., “Magnetic resonance spectroscopy, {beta}-amyloid load, and cognition in a population-based sample of cognitively normal older adults”, Neurology 2011; 77:951-8; and Roberts R O, Geda Y E, Knopman D S, et al., “The Mayo Clinic Study of Aging: design and sampling, participation, baseline measures and sample characteristics”, Neuroepidemiology 2008; 30:58-69.) Participants were randomly selected for recruitment in the MCSA from a population of older adult residents of Olmsted County, Minn., USA. Those with neurological, psychological or systemic illnesses were not excluded. Individuals with dementia, or those unable to be imaged for medical reasons were excluded. All patients were imaged with C11-PiB PET/CT, F18-FDG PET/CT and non-contrast MRI at least once as part of the study. Any additional patient imaging and clinical history was then reviewed.
# Tumors found in any of the subjects were then categorized as possible meningiomas or non-meningiomas based on the reading of the reporting neuroradiologist. Possible meningiomas were further reviewed as a group. […]
# PET imaging was performed as part of the Mayo Clinic Study of Aging as previously described. […] Cerebral PiB retention, a marker of amyloid deposition, was measured as previously described. […]
# [4] = PiB PET/CT activity in normal tissues near the tumors; type: in vivo, human
# Source text: as §3
# PET imaging was performed as part of the Mayo Clinic Study of Aging as previously described. (See Kantarci K, Lowe V, Przybelski S A, et al., “Magnetic resonance spectroscopy, {beta}-amyloid load, and cognition in a population-based sample of cognitively normal older adults”, Neurology 2011; 77:951-8.) PiB PET/CT, then FDG PET/CT were performed on the same day. PET/CT imaging was performed on a 690XT or DRX PET/CT tomograph (GE Healthcare). The PET sinograms were reconstructed using a fully-3D OSEM algorithm into a 30 cm field of view; the pixel size was 1.2 mm and the slice thickness was 3.27 mm (DRX) or 1.96 mm (690XT). CT imaging was obtained immediately prior to PET acquisition and used for attenuation correction. Cerebral PiB retention, a marker of amyloid deposition, was measured as previously described. […]
# [5] = system: meningiomas; assay: PiB PET/CT imaging of meningiomas in patients; type: in vivo, human
# Source text: as §2, §3
# Tumors found in any of the subjects were then categorized as possible meningiomas or non-meningiomas based on the reading of the reporting neuroradiologist. Possible meningiomas were further reviewed as a group. A more strict set of criteria were applied to select a subset of the possible meningiomas that were designated “high-likelihood meningiomas” for further analysis and were defined by (1) tumors that were confirmed to be enhancing on diagnostic MRI (obtained separately for clinical purposes) and (2) tumors that had greater than two years of follow-up imaging confirming no growth or slow growth (1-2 mm per year). When the lead diagnosis of the identified tumor was metastasis, the diagnosis was confirmed by biopsy or autopsy. All tumors smaller than 5 mm thick were excluded, given they fall below the generally accepted lower limits of PET/CT resolution.
# PET imaging was performed as part of the Mayo Clinic Study of Aging as previously described. (See Kantarci K, Lowe V, Przybelski S A, et al., “Magnetic resonance spectroscopy, {beta}-amyloid load, and cognition in a population-based sample of cognitively normal older adults”, Neurology 2011; 77:951-8.) PiB PET/CT, then FDG PET/CT were performed on the same day. PET/CT imaging was performed on a 690XT or DRX PET/CT tomograph (GE Healthcare). The PET sinograms were reconstructed using a fully-3D OSEM algorithm into a 30 cm field of view; the pixel size was 1.2 mm and the slice thickness was 3.27 mm (DRX) or 1.96 mm (690XT). CT imaging was obtained immediately prior to PET acquisition and used for attenuation correction. Cerebral PiB retention, a marker of amyloid deposition, was measured as previously described. (See Kantarci K, Lowe V, Przybelski S A, et al. “Magnetic resonance spectroscopy, {beta}-amyloid load, and cognition in a population-based sample of cognitively normal older adults”, Neurology 2011; 77:951-8.) […]
# [6] = system: non-meningioma tumors; assay: FDG PET/CT imaging of non-meningioma tumors in patients; type: in vivo, human
# Source text: (§4) An Alzheimer's imaging database of two hundred forty-one patients was reviewed. […] MRI reports of all patients were reviewed for possible meningiomas and other tumors. […] Tumors smaller than 7 millimeters are generally considered too small to be evaluated by PET or PET/CT.
# as §3
# (§5) PET imaging was performed as part of the Mayo Clinic Study of Aging as previously described. (See Kantarci K, Lowe V, Przybelski S A, et al., “Magnetic resonance spectroscopy, {beta}-amyloid load, and cognition in a population-based sample of cognitively normal older adults”, Neurology 2011; 77:951-8.) PiB PET/CT, then FDG PET/CT were performed on the same day. PET/CT imaging was performed on a 690XT or DRX PET/CT tomograph (GE Healthcare). […] Cerebral PiB retention, a marker of amyloid deposition, was measured as previously described. […]
# [7] = system: meningiomas; assay: FDG PET/CT imaging of meningiomas in patients; type: in vivo, human
# Source text: as §4, §3, §5
# [8] = meningiomas 5 mm and thicker vs all other tumors in the 834 patient population
compound,measurement,setting,value
CNc1ccc(-c2nc3ccc(C#N)cc3s2)cc1 [Formula 6-CN-PiB],fluorescent staining,"[1]; WHO grade I meningothelial meningioma (FIG. 6 Panel D), 100 nM",positively; also recorded: intense fluorescence
same,staining brightness vs other intracranial tumors,[1]; all meningiomas (n=7) vs other intracranial tumors (n=6),qualitatively brighter
same,6-CN-PiB binding,[2],Moderate
"[11CH3]Nc1ccc(-c2nc3ccc(O)cc3s2)cc1 [Formula (V), [N-Methyl-^11C]2-(4′-methylaminophenyl)-6-hydroxybenzothiazole]",staining of tissue sections,"[1]; tissue sections from meningiomas, 100 nM unlabeled PiB",brightly positive
same,PiB activity relative to normal adjacent tissue,"[3]; all other intracranial tumors imaged (metastases, pituitary macroadenomas, schwannomas, ependymoma)",equal or less than normal adjacent tissue
same,result on PiB PET/CT,"[3]; both intracranial metastases (FIG. 4), pathologically confirmed",negative
same,result on research PiB PET/CT,[3]; melanoma metastasis case,negative
same,PiB activity,"[3]; non-tumorous lesions (strokes, arachnoid cysts, multiple sclerosis lesions)",only trace
same,"average PiB activity, SUVmax",[4]; nearby normal bone,0.6
same,"average PiB activity, SUVmax",[4]; nearby normal grey matter,1.1
same,"average background PiB activity, SUVmax",[4]; surrounding cerebrospinal fluid,0.2
same,"SUVmax (by body weight), range","[5]; 16 high-likelihood meningiomas, PiB PET/CT",1.4-3.6
same,result on repeat PET/CT imaging,"[5]; Example 3: one patient imaged two times, many months in between",same positive results
same,activity at the meningioma on PET and CT images,"[5]; Patient #1, mass along right tentorium cerebelli (FIG. 1)",intense activity
same,activity at the meningioma on PET and CT images,"[5]; Patient #4, mass along tuberculum sellae and planum sphenoidale (FIG. 2)",intense activity
same,result on PiB PET/CT imaging,[5]; all 16 high-likelihood meningiomas,clearly diagnostically positive
same,PiB activity relative to normal adjacent tissues,[5]; all 16 meningiomas identified by strict imaging criteria,greater than normal adjacent tissues
same,sensitivity of PiB PET/CT for meningiomas,[5]; [8],100%
same,specificity of PiB PET/CT for meningiomas,[5]; [8],100%
same,SUVmax of meningioma on repeat imaging,[5]; two patients imaged with PiB PET/CT more than once,stable or increasing
Fluorodeoxyglucose [FDG],FDG PET activity,[6]; melanoma and small cell lung cancer metastases (FIG. 4),increased
same,result on FDG PET/CT,"[6]; melanoma metastasis case, initial imaging",positive
same,result on FDG PET/CT,[6]; pituitary macroadenoma (FIG. 5 Panel B),positive
same,FDG activity,[7]; 2.6 cm thick meningioma of right tentorium (FIG. 3),only trace
same,FDG PET activity,[7]; meningioma in FIG. 4 panels G-I,increased
same,FDG activity,[7]; seven of the 16 high-likelihood meningiomas,moderate to high
